This note sets out measurements from ChEMBL document CHEMBL1148463, “Gamma-amino-substituted analogues of 1-[(S)-2,4-diaminobutanoyl]piperidine as highly potent and selective dipeptidyl peptidase II inhibitors” (J Med Chem, 2004).

For one assay, the target named is Dipeptidyl peptidase 4 (Homo sapiens, UniProt P27487). Kind of assay: Inhibition of human Dipeptidylpeptidase IV (DPP IV).
For assay [1], the target named is Dipeptidyl peptidase II and dipeptidyl peptidase IV (DPP2 and DPP4) (Homo sapiens) (UniProt P27487+Q9UHL4). Put plainly: Ratio of IC50 for DPP IV to that of IC50 for DPP II. Format: protein assay.
The next assay has as its target Dipeptidyl peptidase 2 (Homo sapiens, UniProt Q9UHL4). Kind of assay: Inhibition of human Dipeptidylpeptidase II (DPP II).
Assay [2] can be described thus: Inhibition of human Dipeptidylpeptidase II (DPP II).

Dipeptidyl peptidase 4, sequence (P27487 whole entry): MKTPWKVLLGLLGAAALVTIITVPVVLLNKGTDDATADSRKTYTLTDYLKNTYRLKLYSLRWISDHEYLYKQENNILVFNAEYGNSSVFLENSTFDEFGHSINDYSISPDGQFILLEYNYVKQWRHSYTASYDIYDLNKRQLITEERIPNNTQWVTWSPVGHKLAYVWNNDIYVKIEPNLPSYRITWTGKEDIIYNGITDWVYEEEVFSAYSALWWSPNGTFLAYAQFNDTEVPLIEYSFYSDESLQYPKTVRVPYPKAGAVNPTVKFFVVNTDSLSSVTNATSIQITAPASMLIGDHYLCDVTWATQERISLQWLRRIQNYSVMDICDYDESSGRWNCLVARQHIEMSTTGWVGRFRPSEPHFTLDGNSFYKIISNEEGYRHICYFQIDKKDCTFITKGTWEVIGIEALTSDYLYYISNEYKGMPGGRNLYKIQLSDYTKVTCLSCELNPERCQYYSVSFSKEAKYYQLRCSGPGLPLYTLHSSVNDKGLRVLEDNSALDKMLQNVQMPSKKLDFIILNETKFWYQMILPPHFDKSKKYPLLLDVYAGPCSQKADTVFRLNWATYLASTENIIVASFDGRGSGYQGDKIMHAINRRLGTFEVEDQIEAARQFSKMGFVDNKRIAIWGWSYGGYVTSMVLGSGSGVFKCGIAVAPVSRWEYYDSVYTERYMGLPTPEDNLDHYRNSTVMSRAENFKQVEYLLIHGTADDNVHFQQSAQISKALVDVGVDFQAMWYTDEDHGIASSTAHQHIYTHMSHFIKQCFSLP

On to `N[C@@H](CCNCc1ccc(Cl)cc1)C(=O)N1CC=CCC1`, for which the concentration for half-maximal inhibition (IC50) was 148 µM on Dipeptidyl peptidase 4 and 0.0011 µM against Dipeptidyl peptidase 2. The SI in assay [1] is 130000.
As for `N[C@@H](CCNCc1ccc(Cl)cc1)C(=O)N1CCCCC1`, the IC50 against Dipeptidyl peptidase 4 came out at 165 µM; against Dipeptidyl peptidase 2, 0.00048 µM. For the same molecule, the SI in assay [1] was found to be 340000.
For `N#CC1CCCCN1C(=O)[C@@H](N)CCNCc1ccccc1` (stereo partly drawn), in that order: 68 µM, 0.004 µM and 17000.
`NCC[C@H](NC1CCNCC1)C(=O)N1CCCCC1`: the half-maximal inhibitory concentration (IC50) on Dipeptidyl peptidase 4 was > 1000 µM; at Dipeptidyl peptidase 2, 0.017 µM. Also, the SI in assay [1] is > 59.
For `N[C@@H](CCN(Cc1ccccc1)Cc1ccccc1)C(=O)N1CCCCC1`, in that order: 266 µM, 0.0006 µM and 440000.
For `N[C@@H](CCNCc1ccncc1)C(=O)N1CCCCC1`, in that order: 125 µM, 0.00075 µM and 170000.
For `N[C@@H](CCNCc1cccc(Cl)c1)C(=O)N1CCCCC1`, in that order: 186 µM, 0.00134 µM and 140000.
In the case of `N[C@@H](CCNCc1ccc2ccccc2c1)C(=O)N1CCCCC1`, the IC50 against Dipeptidyl peptidase 4 was determined as 179 µM; on Dipeptidyl peptidase 2 it was 0.0011 µM. Besides, the SI in assay [1] amounted to 160000.
The like results for `CC1CCN(C(=O)[C@@H](N)CCNCc2ccc(Cl)cc2)CC1` were, in that order, > 500 µM, 0.00055 µM and > 910000.
Turning to `N#Cc1cccc(CNCC[C@H](N)C(=O)N2CCCCC2)c1`, the IC50 against Dipeptidyl peptidase 4 came to 132 µM; at Dipeptidyl peptidase 2, 0.0027 µM. For the same molecule, the SI in assay [1] turned out to be 50000.
For `N[C@@H](CCNc1ncccc1[N+](=O)[O-])C(=O)N1CCCCC1`, the IC50 against Dipeptidyl peptidase 4 was 56 µM; against Dipeptidyl peptidase 2, 0.0235 µM.
`CN[C@@H](CCNCc1ccc(Cl)cc1)C(=O)N1CCCCC1`: the half-maximal inhibitory concentration (IC50) was > 500 µM at Dipeptidyl peptidase 4 and 0.187 µM against Dipeptidyl peptidase 2. Besides, in assay [1], the SI is > 2700.
For the molecule `N[C@@H](CCNCc1ccc(Cl)cc1)C(=O)N1CCCC(O)C1` (stereo partly drawn), the IC50 on Dipeptidyl peptidase 4 was > 1000 µM; on Dipeptidyl peptidase 2, 0.0547 µM. Moreover, the SI in assay [1] was > 20000.
For the molecule `N[C@@H](CCNc1ccccc1)C(=O)N1CCCCC1`, the 50% inhibitory concentration (IC50) against Dipeptidyl peptidase 4 was found to be 250 µM; at Dipeptidyl peptidase 2 it was 0.0015 µM.
With `N[C@@H](CCNC(=O)c1ccccc1)C(=O)N1CCCCC1`, the concentration for half-maximal inhibition (IC50) against Dipeptidyl peptidase 4 worked out at 418 µM; against Dipeptidyl peptidase 2, 0.0074 µM.
In the case of `N[C@@H](CCNCc1ccccc1)C(=O)N1CCCCC1`, the 50% inhibitory concentration (IC50) on Dipeptidyl peptidase 4 is 247 µM; against Dipeptidyl peptidase 2, 0.00203 µM. In assay [1], the SI was found to be 120000.
Regarding `CC1CCCCN1C(=O)[C@@H](N)CCNCc1ccc(Cl)cc1` (stereo partly drawn), the half-inhibitory concentration (IC50) against Dipeptidyl peptidase 4 is > 500 µM; against Dipeptidyl peptidase 2 it was 0.0023 µM. Also, the SI in assay [1] is > 220000.
`NCC[C@H](NCc1ccccc1)C(=O)N1CCCCC1`: the IC50 at Dipeptidyl peptidase 4 was > 1000 µM; at Dipeptidyl peptidase 2, 0.0125 µM. Also, the SI in assay [1] is > 80.
On to `N=C(N)NCC[C@H](N)C(=O)N1CCCCC1`, for which the half-maximal inhibitory concentration (IC50) was 545 µM against Dipeptidyl peptidase 4 and 0.0018 µM at Dipeptidyl peptidase 2.
For the molecule `COc1ccc(CNCC[C@H](N)C(=O)N2CCCCC2)c(OC)c1`, the IC50 against Dipeptidyl peptidase 4 is > 500 µM; on Dipeptidyl peptidase 2 it was 0.0027 µM. In addition, the SI in assay [1] was > 180000.
For `N[C@@H](CCNCc1ccc(Cl)cc1)C(=O)N1CCC(O)CC1`, in that order: > 1000 µM, 0.113 µM and > 9000.
For `N[C@@H](CCNCc1ccccc1OCc1ccccc1)C(=O)N1CCCCC1`, in that order: > 500 µM, 0.00039 µM and > 1.3e+06.
As for `CC(=O)NCC[C@H](N)C(=O)N1CCCCC1`, the IC50 against Dipeptidyl peptidase 4 worked out at 518 µM; on Dipeptidyl peptidase 2, 0.0015 µM.
For the molecule `N#CC1CCCCN1C(=O)[C@@H](N)CCNCc1ccc(Cl)cc1` (stereo partly drawn), the 50% inhibitory concentration (IC50) at Dipeptidyl peptidase 4 turned out to be 13 µM; at Dipeptidyl peptidase 2 it was 0.0065 µM. For the same molecule, the SI in assay [1] was 2000.
As for `N[C@@H](CCNCc1ccc(Cl)cc1)C(=O)N1CCCC(F)C1` (stereo partly drawn), the concentration for half-maximal inhibition (IC50) against Dipeptidyl peptidase 4 turned out to be 500 µM; against Dipeptidyl peptidase 2, 0.00062 µM.
With `N[C@@H](CCNCC1CCCCC1)C(=O)N1CCCCC1`, the IC50 against Dipeptidyl peptidase 4 was determined as 496 µM; at Dipeptidyl peptidase 2, 0.0011 µM. Also, the SI in assay [1] was 450000.
The like results for `N[C@@H](CCNCc1ccc(OCc2ccccc2)cc1)C(=O)N1CCCCC1` were, in that order, 192 µM, 0.00041 µM and 470000.
As for `N[C@@H](CCNCc1ccccc1Cl)C(=O)N1CCCCC1`, the IC50 against Dipeptidyl peptidase 4 turned out to be 345 µM; at Dipeptidyl peptidase 2, 0.00023 µM. Moreover, the SI in assay [1] amounted to 1.5e+06.
The like results for `N[C@@H](CCNCc1cccc2ccccc12)C(=O)N1CCCCC1` were, in that order, 301 µM, 0.00131 µM and 230000.
The like results for `N[C@@H](CCNC1CCNCC1)C(=O)N1CCCCC1` were, in that order, 64 µM, 0.085 µM and 750.
For `N[C@@H](CCNCCCc1ccccc1)C(=O)N1CCCCC1`, in that order: > 500 µM, 0.00191 µM and > 260000.
Consider `N#C[C@@H]1CCCCN1C(=O)[C@@H](N)CCN`, for which the 50% inhibitory concentration (IC50) against Dipeptidyl peptidase 4 came to 151 µM; against Dipeptidyl peptidase 2, 0.038 µM. For the same molecule, the SI in assay [1] worked out at 4000.
For `CC1CCCN(C(=O)[C@@H](N)CCNCc2ccc(Cl)cc2)C1` (stereo partly drawn), in that order: > 500 µM, 0.00113 µM and > 440000.
The like results for `N[C@@H](CCNCc1ccc(Cl)cc1)C(=O)N1CCC(F)CC1` were, in that order, 70 µM, 0.00039 µM and 180000.
As to `N[C@@H](CCN(Cc1ccc(Cl)cc1)Cc1ccc(Cl)cc1)C(=O)N1CCCCC1`, the 50% inhibitory concentration (IC50) against Dipeptidyl peptidase 4 is > 125 µM; against Dipeptidyl peptidase 2 it was 0.0042 µM. Moreover, the SI in assay [1] was > 30000.
With `COc1cccc(CNCC[C@H](N)C(=O)N2CCCCC2)c1`, the concentration for half-maximal inhibition (IC50) was 250 µM against Dipeptidyl peptidase 4 and 0.00177 µM at Dipeptidyl peptidase 2. In assay [1], the SI came out at 140000.
As to `COc1ccccc1CNCC[C@H](N)C(=O)N1CCCCC1`, the IC50 was > 500 µM against Dipeptidyl peptidase 4 and 0.185 µM on Dipeptidyl peptidase 2. Also, the SI in assay [1] is > 270000.
For `COc1ccc(CNCC[C@H](N)C(=O)N2CCCCC2)cc1`, in that order: 417 µM, 0.00066 µM and 630000.
For `N[C@@H](CCNCc1cccs1)C(=O)N1CCCCC1`, in that order: 278 µM, 0.0008 µM and 350000.
Take `NCC[C@H](N)C(=O)N1CCCCC1`: the IC50 against Dipeptidyl peptidase 4 was > 1000 µM; in assay [2], 0.13 µM. Further, the SI in assay [1] was > 7600.
For `N#Cc1ccc(NCC[C@H](N)C(=O)N2CCCCC2)nc1`, the IC50 at Dipeptidyl peptidase 4 came out at 205 µM; against Dipeptidyl peptidase 2 it was 0.0046 µM.
For `CN(CC[C@H](N)C(=O)N1CCCCC1)Cc1ccc(Cl)cc1`, the IC50 against Dipeptidyl peptidase 4 came to 196 µM; at Dipeptidyl peptidase 2 it was 0.00022 µM. Further, in assay [1], the SI came to 890000.
Regarding `NCC[C@H](N=C(N)N)C(=O)N1CCCCC1`, the IC50 is > 1000 µM at Dipeptidyl peptidase 4 and 0.0074 µM at Dipeptidyl peptidase 2. Moreover, the SI in assay [1] is > 140.
In the case of `N[C@@H](CCNC1CCCCC1)C(=O)N1CCCCC1`, the IC50 is > 1000 µM against Dipeptidyl peptidase 4 and 0.0186 µM on Dipeptidyl peptidase 2. Also, in assay [1], the SI was > 50000.
For the molecule `N[C@@H](CCNCCc1ccccc1)C(=O)N1CCCCC1`, the IC50 came out at 188 µM against Dipeptidyl peptidase 4 and 0.0009 µM against Dipeptidyl peptidase 2. In assay [1], the SI is 210000.
